Measurements published in patent US10479784B2, “Substituted pyrazin-2-amines as inhibitors of ATR kinase” (Vertex Pharmaceuticals Incorporated, priority 2008, dated 2019).

molecular target: full-length ATR (Homo sapiens (Human), UniProt Q13535); assay: ATR Inhibition Assay (radioactive-phosphate incorporation); assay type: biochemical; conditions: read-out: ATR Ki
Summary of the method: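 Full-length human ATR (5 nM) was assayed at 25 °C in 50 mM Tris/HCl pH 7.5, 10 mM MgCl2, 1 mM DTT, with 10 μM [γ-33P]ATP and 800 μM peptide, after 10-min compound preincubation. Reactions were stopped after 24 h, captured on phosphocellulose and counted; Ki(app) came from non-linear regression of initial rates.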

Sequence of full-length ATR (Q13535 whole entry): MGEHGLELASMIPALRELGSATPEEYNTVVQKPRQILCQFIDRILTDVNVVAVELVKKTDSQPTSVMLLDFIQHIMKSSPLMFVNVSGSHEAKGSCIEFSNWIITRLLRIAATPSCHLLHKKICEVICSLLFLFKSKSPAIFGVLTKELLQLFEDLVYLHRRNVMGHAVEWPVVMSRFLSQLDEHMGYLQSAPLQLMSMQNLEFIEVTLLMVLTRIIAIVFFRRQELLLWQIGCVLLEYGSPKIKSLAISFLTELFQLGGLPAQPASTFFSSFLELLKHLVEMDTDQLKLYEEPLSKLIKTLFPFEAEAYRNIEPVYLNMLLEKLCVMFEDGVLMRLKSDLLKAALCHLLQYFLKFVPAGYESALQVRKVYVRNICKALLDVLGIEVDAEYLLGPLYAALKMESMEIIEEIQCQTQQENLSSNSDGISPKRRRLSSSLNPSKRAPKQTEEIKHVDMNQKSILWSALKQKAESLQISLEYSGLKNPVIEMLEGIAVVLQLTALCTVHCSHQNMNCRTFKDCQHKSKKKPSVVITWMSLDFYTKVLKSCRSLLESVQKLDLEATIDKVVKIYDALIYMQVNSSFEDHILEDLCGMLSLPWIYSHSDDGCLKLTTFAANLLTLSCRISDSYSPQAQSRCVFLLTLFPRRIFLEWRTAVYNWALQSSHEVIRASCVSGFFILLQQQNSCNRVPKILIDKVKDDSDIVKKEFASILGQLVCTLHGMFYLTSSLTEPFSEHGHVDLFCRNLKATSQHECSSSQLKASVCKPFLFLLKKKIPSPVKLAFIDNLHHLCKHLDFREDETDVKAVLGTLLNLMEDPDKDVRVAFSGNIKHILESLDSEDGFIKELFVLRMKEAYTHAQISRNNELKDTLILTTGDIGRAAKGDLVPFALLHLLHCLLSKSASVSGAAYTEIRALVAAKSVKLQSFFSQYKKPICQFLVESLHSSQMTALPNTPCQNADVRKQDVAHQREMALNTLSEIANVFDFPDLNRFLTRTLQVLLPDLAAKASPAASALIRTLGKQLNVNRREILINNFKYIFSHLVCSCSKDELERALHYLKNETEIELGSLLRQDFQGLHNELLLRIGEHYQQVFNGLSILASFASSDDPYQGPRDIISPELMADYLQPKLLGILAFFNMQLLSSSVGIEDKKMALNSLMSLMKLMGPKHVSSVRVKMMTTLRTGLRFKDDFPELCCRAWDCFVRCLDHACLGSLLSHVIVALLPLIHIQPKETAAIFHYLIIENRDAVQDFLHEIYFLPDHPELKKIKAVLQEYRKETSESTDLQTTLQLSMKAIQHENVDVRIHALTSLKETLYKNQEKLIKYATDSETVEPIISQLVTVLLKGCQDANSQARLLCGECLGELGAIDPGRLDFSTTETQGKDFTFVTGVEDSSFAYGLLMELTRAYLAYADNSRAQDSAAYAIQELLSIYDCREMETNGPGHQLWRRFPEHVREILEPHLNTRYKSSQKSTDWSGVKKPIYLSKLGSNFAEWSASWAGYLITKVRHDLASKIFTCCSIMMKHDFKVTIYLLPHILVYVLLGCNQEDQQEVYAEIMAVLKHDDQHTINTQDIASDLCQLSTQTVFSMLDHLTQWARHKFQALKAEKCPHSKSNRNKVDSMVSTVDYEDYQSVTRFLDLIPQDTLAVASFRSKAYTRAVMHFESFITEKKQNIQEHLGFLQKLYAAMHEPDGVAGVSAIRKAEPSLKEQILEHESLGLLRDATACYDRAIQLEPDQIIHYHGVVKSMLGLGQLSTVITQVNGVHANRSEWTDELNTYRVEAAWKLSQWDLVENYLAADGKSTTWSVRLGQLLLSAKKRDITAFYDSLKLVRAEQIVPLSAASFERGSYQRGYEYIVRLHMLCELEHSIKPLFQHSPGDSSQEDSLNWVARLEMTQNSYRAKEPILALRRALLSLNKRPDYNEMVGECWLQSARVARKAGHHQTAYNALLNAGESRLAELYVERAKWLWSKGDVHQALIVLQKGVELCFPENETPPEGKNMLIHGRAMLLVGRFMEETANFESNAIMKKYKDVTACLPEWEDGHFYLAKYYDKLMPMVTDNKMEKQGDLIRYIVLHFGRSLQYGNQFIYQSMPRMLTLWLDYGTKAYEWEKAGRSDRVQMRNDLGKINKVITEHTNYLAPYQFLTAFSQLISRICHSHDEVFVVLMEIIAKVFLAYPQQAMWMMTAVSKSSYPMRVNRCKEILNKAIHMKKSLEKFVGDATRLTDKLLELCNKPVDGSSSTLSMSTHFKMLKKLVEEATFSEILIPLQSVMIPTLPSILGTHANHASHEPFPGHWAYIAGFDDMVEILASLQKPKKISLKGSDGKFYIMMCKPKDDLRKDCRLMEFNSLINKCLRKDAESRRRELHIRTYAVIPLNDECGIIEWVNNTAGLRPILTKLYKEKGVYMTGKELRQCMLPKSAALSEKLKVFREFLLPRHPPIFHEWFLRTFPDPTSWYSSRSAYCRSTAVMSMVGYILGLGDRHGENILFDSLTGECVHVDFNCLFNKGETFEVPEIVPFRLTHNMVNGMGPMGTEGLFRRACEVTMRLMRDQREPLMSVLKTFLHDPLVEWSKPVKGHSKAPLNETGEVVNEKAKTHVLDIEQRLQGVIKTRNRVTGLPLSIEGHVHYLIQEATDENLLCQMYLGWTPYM

| SMILES | Ki [nM] |
| --- | --- |
| CC(C)S(=O)(=O)c1ccc(-c2cnc(N)c(-c3nnc(C4=CCNCC4)o3)n2)cc1 [IA-232, 5-(4-isopropylsulfonylphenyl)-3-[5-(1,2,3,6-tetrahydropyridin-4-yl)-1,3,4-oxadiazol-2-yl]pyrazin-2-amine] | 10 to 100 |
| COc1ccccc1NC(=O)c1nc(-c2ccc(C(=O)N(C)C)cc2)cnc1N [Compound I-28, 3-amino-6-(4-(dimethylcarbamoyl)phenyl)-N-(2-methoxyphenyl) pyrazine-2-carboxamide] | ≤ 10 |
| Nc1ncc(-c2ccc(C(=O)O)cc2)nc1C(=O)Nc1ccccc1 [Compound I-7, 4-(5-amino-6-(phenylcarbamoyl)pyrazin-2-yl)benzoic acid] | 10 to 100 |
| CC(=O)c1cccc(-c2cnc(N)c(C(=O)Nc3ccccc3)n2)c1 [Compound I-22, 6-(3-acetylphenyl)-3-amino-N-phenylpyrazine-2-carboxamide] | 10 to 100 |
| Nc1ncc(-c2ccccc2O)nc1-c1nnc(-c2ccccc2)o1 [IA-61] | 10 to 100 |
| N#Cc1ccc(-c2cnc(N)c(C(=O)Nc3ccccc3)n2)cc1 [Compound I-21, 3-amino-6-(4-cyanophenyl)-N-phenylpyrazine-2-carboxamide] | 10 to 100 |
| Nc1ncc(-c2ccnc(N3CCNCC3)c2)nc1-c1nc2ccccc2[nH]1 [Compound I-136, 3-(1H-benzo[d]imidazol-2-yl)-5-(2-(piperazin-1-yl)pyridin-4-yl)pyrazin-2-amine] | 100 to 5000 |
| CS(=O)(=O)c1ccc(-c2cnc(N)c(-c3noc(-c4ccccc4)n3)n2)cc1 [Compound I-144, 5-(4-(methylsulfonyl)phenyl)-3-(5-phenyl-1,2,4-oxadiazol-3-yl)pyrazin-2-amine] | ≤ 10 |
| COc1ccccc1NC(=O)c1nc(-c2ccoc2)cnc1N [Compound I-37, 3-amino-6-(furan-3-yl)-N-(2-methoxyphenyl)pyrazine-2-carboxamide] | 10 to 100 |
| COc1ccc(NC(C)=O)cc1NC(=O)c1nc(-c2cccnc2)cnc1N [Compound I-100, 3-amino-N-(5-ethanamido-2-methoxyphenyl)-6-(pyridin-3-yl)pyrazine-2-carboxamide] | 100 to 5000 |
| CN(C)C(=O)c1ccc(-c2cnc(N)c(C(=O)Nc3ccccc3)n2)cc1 [Compound I-24, 3-amino-6-(4-(dimethylcarbamoyl)phenyl)-N-phenylpyrazine-2-carboxamide] | 10 to 100 |
| Nc1ncc(-c2cccc(C(=O)N3CCOCC3)c2)nc1C(=O)Nc1ccc(N2CCCC2)cc1 [Compound I-26, 3-amino-6-(3-(morpholine-4-carbonyl)phenyl)-N-(4-(pyrrolidin-1-yl)phenyl)pyrazine-2-carboxamide] | 100 to 5000 |
| Nc1ncc(-c2ccc(C(=O)N3CCCNCC3)c(F)c2)nc1-c1nnc(-c2ccccc2)o1 [IA-6] | ≤ 10 |
| COc1ccc(OC)c(NC(=O)c2nc(-c3cccnc3)cnc2N)c1 [Compound I-107, 3-amino-N-(2,5-dimethoxyphenyl)-6-(pyridin-3-yl)pyrazine-2-carboxamide] | 10 to 100 |
| Nc1ncc(-c2cccnc2)nc1C(=O)Nc1ccccn1 [Compound I-97, 3-amino-N-(pyridin-2-yl)-6-(pyridin-3-yl)pyrazine-2-carboxamide] | 100 to 5000 |
| COCCNCc1ccc(-c2nnc(-c3nc(-c4ccc(S(=O)(=O)C(C)C)cc4)cnc3N)o2)cc1 [IA-119, 5-(4-isopropylsulfonylphenyl)-3-[5-[4-[(2-methoxyethylamino)methyl]phenyl]-1,3,4-oxadiazol-2-yl]pyrazin-2-amine] | ≤ 10 |
| COc1ccc(C)cc1NC(=O)c1nc(-c2cccnc2)cnc1N [Compound I-108, 3-amino-N-(2-methoxy-5-methylphenyl)-6-(pyridin-3-yl)pyrazine-2-carboxamide] | ≤ 10 |
| COc1cc(-c2cnc(N)c(C(=O)Nc3ccccc3)n2)ccn1 [Compound I-38, 3-amino-6-(2-methoxypyridin-4-yl)-N-phenylpyrazine-2-carboxamide] | 10 to 100 |
| Nc1ncc(-c2cccc(C(=O)NCCN3CCCCC3)c2)nc1C(=O)Nc1ccccc1 [Compound I-61, 3-amino-N-phenyl-6-(3-(2-(piperidin-1-yl)ethylcarbamoyl)phenyl) pyrazine-2-carboxamide] | 100 to 5000 |
| CS(=O)(=O)c1ccc(-c2cnc(N)c(C(=O)Nc3nc4ccccc4[nH]3)n2)cc1 [Compound V-11] | ≤ 10 |

Other lines, results leading:

| Ki [nM] | SMILES |
| --- | --- |
| ≤ 10 | CNCc1ccc(-c2nnc(-c3nc(-c4ccc(S(=O)(=O)C(C)C)cc4Cl)cnc3N)o2)cc1 [IA-316, 5-(2-chloro-4-isopropylsulfonyl-phenyl)-3-[5-[4-(methylaminomethyl)phenyl]-1,3,4-oxadiazol-2-yl]pyrazin-2-amine] |
| 100 to 5000 | CN(C)C(=O)c1ccc(-c2cnc(N)c(-c3nnc(-c4ccccc4)o3)n2)c(C=CF)c1 [IA-148, 4-[5-amino-6-(5-phenyl-1,3,4-oxadiazol-2-yl)pyrazin-2-yl]-3-(2-fluorovinyl)-N,N-dimethyl-benzamide] |
| 100 to 5000 | Cc1cc(NC(=O)c2nc(-c3ccc(S(C)(=O)=O)cc3)cnc2N)n(C)n1 [VII-3] |
| ≤ 10 | Cc1ccsc1-c1nnc(-c2nc(-c3ccc(S(=O)(=O)C(C)C)cc3)cnc2N)o1 [IA-276, 5-(4-isopropylsulfonylphenyl)-3-[5-(3-methyl-2-thienyl)-1,3,4-oxadiazol-2-yl]pyrazin-2-amine] |
| ≤ 10 | CC(C)S(=O)(=O)c1ccc(-c2cnc(N)c(-c3nnc(-c4ccc([C@H](C)N)cc4)o3)n2)cc1 [IA-228, 3-[5-[4-[(1S)-1-aminoethyl]phenyl]-1,3,4-oxadiazol-2-yl]-5-(4-isopropylsulfonylphenyl)pyrazin-2-amine] |
| 100 to 5000 | CN(C)Cc1ccc(-c2cnc(N)c(-c3nnc(-c4ccc(CO)cc4)o3)n2)cc1 [IA-240, [4-[5-[3-amino-6-[4-(dimethylaminomethyl)phenyl]pyrazin-2-yl]-1,3,4-oxadiazol-2-yl]phenyl]methanol] |
| 100 to 5000 | CN(C)C(=O)c1ccc(-c2cnc(N)c(-c3nnc(Nc4cccc(C#N)c4)o3)n2)cc1 [IA-254, 4-[5-amino-6-[5-(3-cyanoanilino)-1,3,4-oxadiazol-2-yl]pyrazin-2-yl]-N,N-dimethyl-benzamide] |
| 100 to 5000 | Nc1ncc(-c2ccccc2C(F)(F)F)nc1-c1nnc(-c2ccccc2)o1 [IA-174, 3-(5-phenyl-1,3,4-oxadiazol-2-yl)-5-[2(-trifluoromethyl)phenyl]pyrazin-2-amine] |
| 100 to 5000 | COCc1ccccc1-c1cnc(N)c(-c2nnc(-c3ccccc3)o2)n1 [IA-125, 5-[2-(methoxymethyl)phenyl]-3-(5-phenyl-1,3,4-oxadiazol-2-yl)pyrazin-2-amine] |
| 10 to 100 | N#Cc1cccc(-c2cnc(N)c(-c3nnc(-c4ccccc4)o3)n2)c1 [IA-252, 3-[5-amino-6-(5-phenyl-1,3,4-oxadiazol-2-yl)pyrazin-2-yl]benzonitrile] |
| ≤ 10 | CC(C)S(=O)(=O)c1ccc(-c2cnc(N)c(-c3cc(-c4ccc(CNCCO)cc4)no3)n2)cc1 [IIA-9, 2-(4-(5-(3-amino-6-(4-(isopropylsulfonyl)phenyl)pyrazin-2-yl)isoxazol-3-yl)benzylamino)ethanol] |
| ≤ 10 | CC(C)S(=O)(=O)c1ccc(-c2cnc(N)c(-c3nnc(-c4ccc(CNCC(C)(C)O)cc4F)o3)n2)cc1 [IA-348, 1-(4-(5-(3-amino-6-(4-(isopropylsulfonyl)phenyl)pyrazin-2-yl)-1,3,4-oxadiazol-2-yl)-3-fluorobenzylamino)-2-methylpropan-2-ol] |
